Reference: US8192962B2, “Processes for detecting toxic substances” (Daikin Industries, Ltd., priority 2001, dated 2012)

System: Metabolism protein genes
Assay: DNA chip mRNA expression in yeast, metabolism protein genes (Table 7)
Assay type: cell-based, Saccharomyces cerevisiae S288C
Outline: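 In this screen, yeast in logarithmic growth are challenged for two hours with a toxic substance at a non-lethal inhibitory concentration. Their mRNA, converted to Cy3- or Cy5-labeled cDNA, hybridizes at 65° C. to a chip spanning every yeast gene, and expression is expressed as a ratio to untreated cells.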

C=CC=O [(14), acrolein]
level of expressed mRNA in the presence/in the absence of chemical substance (yeast gene YKL060C): 0.8 | The level of expressed mRNA in the presence of chemical substance/The level of expressed mRNA in the absence of chemical substance (yeast gene YKL091C): 1.5 | The level of expressed mRNA in the presence of chemical substance/The level of expressed mRNA in the absence of chemical substance (yeast gene YKL104C): 0.8 | level of expressed mRNA in the presence/in the absence of chemical substance (yeast gene YKL148C): 0.8 | The level of expressed mRNA in the presence of chemical substance/The level of expressed mRNA in the absence of chemical substance (yeast gene YKL152C): 1.0 | level of expressed mRNA in the presence/in the absence of chemical substance (yeast gene YKL157W): 0.8 | The level of expressed mRNA in the presence of chemical substance/The level of expressed mRNA in the absence of chemical substance (yeast gene YKL213C): 0.9 | The level of expressed mRNA in the presence of chemical substance/The level of expressed mRNA in the absence of chemical substance (yeast gene YKL215C): 1.0 | level of expressed mRNA in the presence/in the absence of chemical substance (yeast gene YKR034W): 1.1 | The level of expressed mRNA in the presence of chemical substance/The level of expressed mRNA in the absence of chemical substance (yeast gene YKR039W): 1.2 | The level of expressed mRNA in the presence of chemical substance/The level of expressed mRNA in the absence of chemical substance (yeast gene YLL058W): 0.8 | level of expressed mRNA in the presence/in the absence of chemical substance (yeast gene YLR006C): 1.0 | level of expressed mRNA in the presence/in the absence of chemical substance (yeast gene YLR044C): 0.5 | level of expressed mRNA in the presence/in the absence of chemical substance (yeast gene YLR056W): 0.7 | level of expressed mRNA in the presence/in the absence of chemical substance (yeast gene YLR058C): 0.7 | level of expressed mRNA in the presence/in the absence of chemical substance (yeast gene YLR081W): 1.0 | level of expressed mRNA in the presence/in the absence of chemical substance (yeast gene YLR089C): 0.7 | The level of expressed mRNA in the presence of chemical substance/The level of expressed mRNA in the absence of chemical substance (yeast gene YLR180W): 0.6 | The level of expressed mRNA in the presence of chemical substance/The level of expressed mRNA in the absence of chemical substance (yeast gene YLR273C): 1.3 | level of expressed mRNA in the presence/in the absence of chemical substance (yeast gene YLR284C): 1.3 | The level of expressed mRNA in the presence of chemical substance/The level of expressed mRNA in the absence of chemical substance (yeast gene YLR299W): 1.3 | The level of expressed mRNA in the presence of chemical substance/The level of expressed mRNA in the absence of chemical substance (yeast gene YLR300W): 0.6 | The level of expressed mRNA in the presence of chemical substance/The level of expressed mRNA in the absence of chemical substance (yeast gene YLR303W): 3.8 | level of expressed mRNA in the presence/in the absence of chemical substance (yeast gene YLR304C): 0.7 | The level of expressed mRNA in the presence of chemical substance/The level of expressed mRNA in the absence of chemical substance (yeast gene YLR307W): 1.9 | The level of expressed mRNA in the presence of chemical substance/The level of expressed mRNA in the absence of chemical substance (yeast gene YLR348C): 1.0 | level of expressed mRNA in the presence/in the absence of chemical substance (yeast gene YLR354C): 0.9 | level of expressed mRNA in the presence/in the absence of chemical substance (yeast gene YLR372W): 0.6 | level of expressed mRNA in the presence/in the absence of chemical substance (yeast gene YML022W): 0.9 | The level of expressed mRNA in the presence of chemical substance/The level of expressed mRNA in the absence of chemical substance (yeast gene YML054C): 2.1 | The level of expressed mRNA in the presence of chemical substance/The level of expressed mRNA in the absence of chemical substance (yeast gene YML070W): 1.3 | The level of expressed mRNA in the presence of chemical substance/The level of expressed mRNA in the absence of chemical substance (yeast gene YML100W): 1.2 | The level of expressed mRNA in the presence of chemical substance/The level of expressed mRNA in the absence of chemical substance (yeast gene YMR008C): 0.7 | level of expressed mRNA in the presence/in the absence of chemical substance (yeast gene YMR011W): 0.6 | level of expressed mRNA in the presence/in the absence of chemical substance (yeast gene YMR015C): 0.8 | The level of expressed mRNA in the presence of chemical substance/The level of expressed mRNA in the absence of chemical substance (yeast gene YMR020W): 1.1 | The level of expressed mRNA in the presence of chemical substance/The level of expressed mRNA in the absence of chemical substance (yeast gene YMR081C): 1.8 | level of expressed mRNA in the presence/in the absence of chemical substance (yeast gene YMR083W): 0.8 | The level of expressed mRNA in the presence of chemical substance/The level of expressed mRNA in the absence of chemical substance (yeast gene YMR105C): 1.0 | The level of expressed mRNA in the presence of chemical substance/The level of expressed mRNA in the absence of chemical substance (yeast gene YMR189W): 1.6 | level of expressed mRNA in the presence/in the absence of chemical substance (yeast gene YMR205C): 0.5 | level of expressed mRNA in the presence/in the absence of chemical substance (yeast gene YMR261C): 0.6 | The level of expressed mRNA in the presence of chemical substance/The level of expressed mRNA in the absence of chemical substance (yeast gene YMR271C): 1.8 | The level of expressed mRNA in the presence of chemical substance/The level of expressed mRNA in the absence of chemical substance (yeast gene YMR296C): 0.7 | level of expressed mRNA in the presence/in the absence of chemical substance (yeast gene YMR323W): 1.2 | The level of expressed mRNA in the presence of chemical substance/The level of expressed mRNA in the absence of chemical substance (yeast gene YNL012W): 1.0 | level of expressed mRNA in the presence/in the absence of chemical substance (yeast gene YNL025C): 1.2 | The level of expressed mRNA in the presence of chemical substance/The level of expressed mRNA in the absence of chemical substance (yeast gene YNL037C): 1.3 | The level of expressed mRNA in the presence of chemical substance/The level of expressed mRNA in the absence of chemical substance (yeast gene YNL045W): 0.8 | The level of expressed mRNA in the presence of chemical substance/The level of expressed mRNA in the absence of chemical substance (yeast gene YNL104C): 0.9 | The level of expressed mRNA in the presence of chemical substance/The level of expressed mRNA in the absence of chemical substance (yeast gene YNL106C): 1.1 | The level of expressed mRNA in the presence of chemical substance/The level of expressed mRNA in the absence of chemical substance (yeast gene YNL169C): 0.9 | level of expressed mRNA in the presence/in the absence of chemical substance (yeast gene YNL192W): 0.7 | The level of expressed mRNA in the presence of chemical substance/The level of expressed mRNA in the absence of chemical substance (yeast gene YNL231C): 0.9 | The level of expressed mRNA in the presence of chemical substance/The level of expressed mRNA in the absence of chemical substance (yeast gene YNL322C): 1.2 | The level of expressed mRNA in the presence of chemical substance/The level of expressed mRNA in the absence of chemical substance (yeast gene YNL331C): 7.5 | The level of expressed mRNA in the presence of chemical substance/The level of expressed mRNA in the absence of chemical substance (yeast gene YNL332W): 3.0 | The level of expressed mRNA in the presence of chemical substance/The level of expressed mRNA in the absence of chemical substance (yeast gene YNR002C): 1.2 | The level of expressed mRNA in the presence of chemical substance/The level of expressed mRNA in the absence of chemical substance (yeast gene YNR019W): 1.0 | The level of expressed mRNA in the presence of chemical substance/The level of expressed mRNA in the absence of chemical substance (yeast gene YNR033W): 0.9 | The level of expressed mRNA in the presence of chemical substance/The level of expressed mRNA in the absence of chemical substance (yeast gene YNR059W): 1.0 | The level of expressed mRNA in the presence of chemical substance/The level of expressed mRNA in the absence of chemical substance (yeast gene YOL058W): 1.5 | level of expressed mRNA in the presence/in the absence of chemical substance (yeast gene YOL086C): 0.6 | level of expressed mRNA in the presence/in the absence of chemical substance (yeast gene YOL108C): 0.9 | level of expressed mRNA in the presence/in the absence of chemical substance (yeast gene YOL116W): 0.9 | The level of expressed mRNA in the presence of chemical substance/The level of expressed mRNA in the absence of chemical substance (yeast gene YOL126C): 1.2 | The level of expressed mRNA in the presence of chemical substance/The level of expressed mRNA in the absence of chemical substance (yeast gene YOL151W): 4.0 | The level of expressed mRNA in the presence of chemical substance/The level of expressed mRNA in the absence of chemical substance (yeast gene YOL153C): 1.5 | level of expressed mRNA in the presence/in the absence of chemical substance (yeast gene YOL156W): 0.9 | The level of expressed mRNA in the presence of chemical substance/The level of expressed mRNA in the absence of chemical substance (yeast gene YOL165C): 9.1 | level of expressed mRNA in the presence/in the absence of chemical substance (yeast gene YOR002W): 0.9 | level of expressed mRNA in the presence/in the absence of chemical substance (yeast gene YOR085W): 0.7 | The level of expressed mRNA in the presence of chemical substance/The level of expressed mRNA in the absence of chemical substance (yeast gene YOR099W): 0.7 | level of expressed mRNA in the presence/in the absence of chemical substance (yeast gene YOR103C): 1.2 | level of expressed mRNA in the presence/in the absence of chemical substance (yeast gene YOR108W): 0.9 | level of expressed mRNA in the presence/in the absence of chemical substance (yeast gene YOR128C): 0.7 | The level of expressed mRNA in the presence of chemical substance/The level of expressed mRNA in the absence of chemical substance (yeast gene YOR130C): 1.3 | level of expressed mRNA in the presence/in the absence of chemical substance (yeast gene YOR142W): 0.8 | level of expressed mRNA in the presence/in the absence of chemical substance (yeast gene YOR176W): 0.8 | level of expressed mRNA in the presence/in the absence of chemical substance (yeast gene YOR178C): 1.0 | level of expressed mRNA in the presence/in the absence of chemical substance (yeast gene YOR251C): 1.1 | The level of expressed mRNA in the presence of chemical substance/The level of expressed mRNA in the absence of chemical substance (yeast gene YOR336W): 1.1 | The level of expressed mRNA in the presence of chemical substance/The level of expressed mRNA in the absence of chemical substance (yeast gene YOR347C): 0.9 | level of expressed mRNA in the presence/in the absence of chemical substance (yeast gene YOR348C): 1.2 | The level of expressed mRNA in the presence of chemical substance/The level of expressed mRNA in the absence of chemical substance (yeast gene YPL017C): 1.6 | level of expressed mRNA in the presence/in the absence of chemical substance (yeast gene YPL028W): 0.8 | level of expressed mRNA in the presence/in the absence of chemical substance (yeast gene YPL057C): 0.7 | level of expressed mRNA in the presence/in the absence of chemical substance (yeast gene YPL135W): 1.1 | level of expressed mRNA in the presence/in the absence of chemical substance (yeast gene YPL148C): 1.6 | The level of expressed mRNA in the presence of chemical substance/The level of expressed mRNA in the absence of chemical substance (yeast gene YPR026W): 1.5 | level of expressed mRNA in the presence/in the absence of chemical substance (yeast gene YPR113W): 1.3 | level of expressed mRNA in the presence/in the absence of chemical substance (yeast gene YPR165W): 1.0 | The level of expressed mRNA in the presence of chemical substance/The level of expressed mRNA in the absence of chemical substance (yeast gene YPR167C): 4.2 | level of expressed mRNA in the presence/in the absence of chemical substance (yeast gene YPR183W): 0.7
